Experimental data reported in patent publication US20170007561A1, “CONTEMPORANEOUS, HETEROGENEOUSLY-ORIENTED, MULTI-TARGETED THERAPEUTIC MODIFICATION AND/OR MODULATION OF DISEASE BY ADMINISTRATION OF SULFUR-CONTAINING, AMINO ACID-SPECIFIC SMALL MOLECULES” (BioNumerik Pharmaceuticals, Inc., priority 2014, published 2017).

Assays:
Aminopeptidase N = Aminopeptidase N (Homo sapiens, UniProt P15144); assay: Aminopeptidase N activity (summary Table 27); format: biochemical
bovine TrxR = molecular target: T1, bovine TrxR (Bos taurus, UniProt O62768); assay: TrxR NADPH oxidation assay without Trx (Reaction A); format: biochemical
T1 construct: purchased American Diagnostica
T1 sequence (O62768 1-499): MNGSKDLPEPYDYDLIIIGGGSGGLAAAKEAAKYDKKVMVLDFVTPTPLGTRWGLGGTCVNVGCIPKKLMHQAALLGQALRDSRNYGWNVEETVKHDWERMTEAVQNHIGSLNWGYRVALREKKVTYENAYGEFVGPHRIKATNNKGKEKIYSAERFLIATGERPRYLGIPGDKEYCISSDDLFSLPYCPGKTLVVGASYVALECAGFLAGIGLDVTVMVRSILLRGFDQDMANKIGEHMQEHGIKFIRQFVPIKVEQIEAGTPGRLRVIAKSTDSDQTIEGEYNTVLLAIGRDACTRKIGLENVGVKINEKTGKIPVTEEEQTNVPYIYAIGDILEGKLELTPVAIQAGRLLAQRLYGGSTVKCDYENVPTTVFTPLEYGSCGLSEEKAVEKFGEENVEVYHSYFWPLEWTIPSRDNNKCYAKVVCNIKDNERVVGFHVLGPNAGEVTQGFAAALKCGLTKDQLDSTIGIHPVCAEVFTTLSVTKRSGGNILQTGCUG

[1] = molecular target: T2, Trx (E13K, D16K, E95K, E103K) (Homo sapiens, UniProt P10599, D16K/E103K/E13K/E95K); assay: X-ray crystallography of Tavocept-derived mesna adduct on Trx; format: binding; conditions: Tavocept 40 mM
T2 construct: 6xHis with TEV site (N, cleaved yes); made in house; host or cells: E. coli BL21(DE3)
T2 sequence (P10599 1-105 E13K/D16K/E95K/E103K): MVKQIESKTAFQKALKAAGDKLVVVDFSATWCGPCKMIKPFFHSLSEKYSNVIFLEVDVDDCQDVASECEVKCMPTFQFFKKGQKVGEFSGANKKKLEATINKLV
Experimental: Adduct was prepared as described above with some modifications designed to increase the likelihood of success in crystallization of the protein. […] This reaction was incubated for 1 hour at 30° C. followed by overnight incubation at 4° C. […] Aliquots of this solution were analyzed by ESI LC-MS to confirm the presence of adduct(s) prior to initiation of crystallization experiments.
These initial broad screens produced crystals under a wide range of conditions (data not shown) and the screens used included: (i) PEGION, CRYSTALS HT, and PEGRX (Hampton Research) and (ii) JCSG and BASIC (JENA Biosciences). Multiple rounds of optimization were completed and included fine screens, varying the protein concentration and varying the protein to reservoir ratios to obtain diffraction quality crystals. In the Trx pH 9.0/8.5 structure (adduct formed at pH 9.0, crystals grown at pH 8.5), the best crystals were obtained in 20% ethanol, 0.1 M Tris (at 60 mg/mL Trx protein) and diffracted to 2.5 Å (C2 space group). In Trx pH 9.0/7.0 (adduct formed at pH 9.0, crystals grown at pH 7.0), the best crystals were obtained in 20% PEG3350, 0.2 M KCl (60 mg/mL Trx protein) and diffracted to 2.8 Å (C2 space group). In Trx pH 7.0/7.0 (adduct formed at pH 7.0, crystals grown at pH 7.0), the best crystals were obtained in 28% PEG3350, 0.2M KCl (160 mg/mL Trx protein) and diffracted to 1.85 Å resolution (P21 space group).
The solution obtained was consistent with four molecules in the crystal asymmetric unit. […] Molecules C and D were substantially rebuilt and the Tavocept-derived mesna adduct added after protein rebuilding was complete. The structure solution was supported by contiguous electron density for the entire chain trace of each molecule, landmark side chain density features matching the amino acid sequence including cysteines, absence of phi-psi violations, and final R/Rfree values in the normal range. […] For the Trx pH 9.0/8.5 structure, residual density observed near Cys69 of molecule A was modeled as a Tavocept-derived mesna adduct in a dual conformation. […]

human cancer cell lines = assay: Paclitaxel- and platinum-induced cytotoxicity; format: cell-based
Source text: Tavocept mediates the non-enzymatic xenobiotic modification of sulfur-containing amino acid residues (e.g., cysteine) on proteins. As an engineered, non-naturally occurring agent (i.e., xenobiotic), Tavocept is autocatalytic and requires no protein cofactor to cause the xenobiotic modification of cysteine, but appears to be specific for cysteine residues located within a particular structural context (i.e., not all cysteines in a protein are so modified). Tavocept-mediated, xenobiotic modification represents a novel mechanism of action for a cancer treating agent and can be compared to a degree with post-translational modifications of cysteine residues in proteins (see, Table 3, below).

[2] = tested on: bovine brain microtubule protein (α-/β-tubulin); assay: Electron microscopy of microtubule polymerization reactions; format: biochemical; conditions: presence and absence of paclitaxel
Experimental: (1 mM/1 mM/6 μM (v/v/v)). Electron micrograph samples were prepared by gently mixing samples of reactions with an equal volume of 50% sucrose in buffer P (0.1 M PIPES, 1 mM EGTA, pH 6.5) and mounting on carbon-coated grids (400 mesh formvar/carbon, Electron Microscopy Sciences). Grids were washed with cytochrome c (1%) and water and stained with uranyl acetate (1%). Electron microscopy was performed using a Philips 208S electron microscope (Philips Instruments) at an accelerating voltage of 60 kV. Micrographs were taken at 36,000× and 7,000× magnifications.

RNR subunit 1 = RNR subunit 1 (Homo sapiens, UniProt P23921); assay: Whole protein Mass Spectroscopy of RNR1; format: binding
Chain of RNR subunit 1 (P23921 whole entry): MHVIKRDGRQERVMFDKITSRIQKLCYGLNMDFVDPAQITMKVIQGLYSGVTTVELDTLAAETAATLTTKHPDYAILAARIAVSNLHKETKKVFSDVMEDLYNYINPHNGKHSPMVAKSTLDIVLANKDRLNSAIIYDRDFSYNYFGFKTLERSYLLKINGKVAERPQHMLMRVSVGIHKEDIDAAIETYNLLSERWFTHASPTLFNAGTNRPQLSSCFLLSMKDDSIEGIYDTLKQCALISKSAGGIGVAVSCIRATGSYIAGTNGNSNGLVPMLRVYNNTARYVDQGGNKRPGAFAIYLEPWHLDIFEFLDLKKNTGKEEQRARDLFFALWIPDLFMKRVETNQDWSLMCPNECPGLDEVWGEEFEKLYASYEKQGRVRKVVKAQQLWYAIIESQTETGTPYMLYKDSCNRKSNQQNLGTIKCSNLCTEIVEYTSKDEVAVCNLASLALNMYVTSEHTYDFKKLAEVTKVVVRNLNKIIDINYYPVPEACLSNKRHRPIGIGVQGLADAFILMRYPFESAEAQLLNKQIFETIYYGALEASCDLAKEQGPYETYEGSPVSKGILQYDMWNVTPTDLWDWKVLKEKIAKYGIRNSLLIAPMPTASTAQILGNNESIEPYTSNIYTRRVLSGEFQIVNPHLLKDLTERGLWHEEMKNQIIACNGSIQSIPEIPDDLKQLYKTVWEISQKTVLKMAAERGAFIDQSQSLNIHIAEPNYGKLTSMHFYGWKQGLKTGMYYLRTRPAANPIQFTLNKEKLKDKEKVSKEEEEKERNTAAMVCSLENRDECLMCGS
Source text: RNR1 contains a total of sixteen (16) cysteine residues and at least five (5) of these cysteine residues are required for catalysis, including: Cys218, Cys429, Cys444, Cys787, and Cys790. It is hypothesized that the Tavocept-derived mesna adducts identified on the RNR1 protein using whole protein Mass Spectroscopy (see, FIG. 49) may alter or modulate RNR activity.

T790M EGFR kinase = T790M EGFR kinase (Homo sapiens, UniProt P00533, T790M); assay: EGFR kinase assay (ADP-glo, polyGT substrate), T790M mutant; format: biochemical
Chain of T790M EGFR kinase (P00533 25-1210 T790M): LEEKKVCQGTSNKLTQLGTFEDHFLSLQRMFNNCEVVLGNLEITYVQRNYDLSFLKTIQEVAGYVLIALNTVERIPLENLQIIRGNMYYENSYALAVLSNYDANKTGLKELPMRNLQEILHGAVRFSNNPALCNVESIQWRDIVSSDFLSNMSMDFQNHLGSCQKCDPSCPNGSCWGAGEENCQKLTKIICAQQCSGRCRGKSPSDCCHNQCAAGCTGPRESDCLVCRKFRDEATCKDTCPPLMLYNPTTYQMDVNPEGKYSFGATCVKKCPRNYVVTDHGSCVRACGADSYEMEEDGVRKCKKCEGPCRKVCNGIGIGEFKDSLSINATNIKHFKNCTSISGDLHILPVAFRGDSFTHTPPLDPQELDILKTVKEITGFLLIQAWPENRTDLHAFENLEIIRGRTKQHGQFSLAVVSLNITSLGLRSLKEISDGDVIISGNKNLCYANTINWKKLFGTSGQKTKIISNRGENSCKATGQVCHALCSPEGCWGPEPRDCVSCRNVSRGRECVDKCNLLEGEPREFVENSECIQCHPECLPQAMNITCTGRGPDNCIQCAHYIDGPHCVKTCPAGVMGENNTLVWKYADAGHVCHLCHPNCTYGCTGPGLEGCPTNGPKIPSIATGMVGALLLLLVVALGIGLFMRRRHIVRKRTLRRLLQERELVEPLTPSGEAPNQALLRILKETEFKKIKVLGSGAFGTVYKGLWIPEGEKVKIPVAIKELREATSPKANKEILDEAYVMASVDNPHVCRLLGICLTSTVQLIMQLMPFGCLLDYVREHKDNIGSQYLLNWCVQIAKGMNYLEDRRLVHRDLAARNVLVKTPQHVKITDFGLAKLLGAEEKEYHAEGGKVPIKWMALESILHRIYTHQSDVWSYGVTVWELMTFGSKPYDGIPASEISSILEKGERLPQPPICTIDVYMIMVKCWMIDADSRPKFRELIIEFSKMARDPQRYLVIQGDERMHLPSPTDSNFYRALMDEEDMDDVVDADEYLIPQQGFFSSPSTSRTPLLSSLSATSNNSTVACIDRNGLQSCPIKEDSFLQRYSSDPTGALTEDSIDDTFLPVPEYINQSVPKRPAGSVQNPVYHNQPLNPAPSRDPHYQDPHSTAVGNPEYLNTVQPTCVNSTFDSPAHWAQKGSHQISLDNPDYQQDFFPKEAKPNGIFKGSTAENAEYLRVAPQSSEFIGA

Chain of Aminopeptidase N (P15144 whole entry): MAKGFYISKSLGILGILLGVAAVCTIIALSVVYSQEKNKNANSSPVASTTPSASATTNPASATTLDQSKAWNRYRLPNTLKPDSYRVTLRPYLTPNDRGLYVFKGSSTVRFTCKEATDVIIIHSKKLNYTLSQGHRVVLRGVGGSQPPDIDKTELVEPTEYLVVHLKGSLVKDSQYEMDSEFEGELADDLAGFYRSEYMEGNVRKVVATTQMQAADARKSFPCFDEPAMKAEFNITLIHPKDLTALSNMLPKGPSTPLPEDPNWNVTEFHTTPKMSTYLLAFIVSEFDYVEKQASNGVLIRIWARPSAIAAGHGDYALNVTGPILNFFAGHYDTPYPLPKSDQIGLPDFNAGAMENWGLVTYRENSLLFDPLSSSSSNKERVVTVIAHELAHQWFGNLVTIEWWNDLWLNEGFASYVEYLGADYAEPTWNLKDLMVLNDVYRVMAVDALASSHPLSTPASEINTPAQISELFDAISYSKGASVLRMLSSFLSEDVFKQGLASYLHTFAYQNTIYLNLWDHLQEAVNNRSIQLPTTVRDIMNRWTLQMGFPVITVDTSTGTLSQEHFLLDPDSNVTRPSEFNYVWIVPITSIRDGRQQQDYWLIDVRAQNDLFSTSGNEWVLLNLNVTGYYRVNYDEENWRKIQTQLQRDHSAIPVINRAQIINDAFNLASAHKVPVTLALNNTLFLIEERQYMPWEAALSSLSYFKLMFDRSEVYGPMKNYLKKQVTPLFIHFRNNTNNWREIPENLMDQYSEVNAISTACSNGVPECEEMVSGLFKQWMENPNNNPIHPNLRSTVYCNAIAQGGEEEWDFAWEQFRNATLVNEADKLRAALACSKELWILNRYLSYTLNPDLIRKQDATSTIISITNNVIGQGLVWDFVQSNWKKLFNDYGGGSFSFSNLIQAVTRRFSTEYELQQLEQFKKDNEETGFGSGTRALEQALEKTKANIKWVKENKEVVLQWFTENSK

## O=S(=O)([O-])CCSSCCS(=O)(=O)[O-].[Na+].[Na+] [Tavocept, disodium 2,2′-dithio-bis-ethane sulfonate]
Aminopeptidase N
  Cellular consequence of BNP7787-modification and/or modulation: aminopeptidase N: can inhibit γ-glutamyltranspeptidase and aminopeptidase N enzyme
Bovine TrxR; Reaction A
  Reduction by TrxR alone: did not detectably reduce
Bovine TrxR; TrxR alone + NADPH, no Trx, disulfide 0.5 mM
  NADPH Oxidation, Reaction A: 0.3 ± 0.01 nmol/min/mL
[1]; Trx pH 7.0/7.0 structure
  Mesna adduct site on Trx by X-ray: clearly visible on Cys69 in both molecules A and B
[1]; Trx pH 9.0/7.0 structure
  Mesna adduct site on Trx by X-ray: clearly visible on both Cys69 and Cys62 in both molecules A and B
[1]; Trx pH 9.0/8.5 structure
  Mesna adduct site on Trx by X-ray: clearly visible on Cys69 in both molecules A and B
Human cancer cell lines
  interference with paclitaxel- and platinum-induced cytotoxicity: not to interfere
[2]; Tavocept preincubated 20 minutes, qualitative
  abundance of microtubules on EM grids: reduction in the abundance of microtubules
[2]; Tavocept
  microtubule morphology: no effects on overall gross microtubule morphology
RNR subunit 1
  number of Tavocept-derived mesna adducts on cysteine residues within RNR1: ≤ 8
T790M EGFR kinase; 10 μM or 100 μM ATP, physiological concentrations (<20 mM) of Tavocept
  inhibition of T790M EGFR kinase: did not notably inhibit
T790M EGFR kinase; Tavocept alone, 10 μM ATP
  inhibitory activity on T790M EGFR kinase activity: essentially no inhibitory activity
T790M EGFR kinase; Tavocept in combination with Erlotinib, 10 μM ATP
  effect on Erlotinib inhibition of T790M EGFR kinase: strongly potentiated
